# Measurements from patent US20080255206A1, “Rxr Agonists and Antagonists, Alone or in Combination with Ppar Ligands, in the Treatment of Metabolic and Cardiovascular Diseases” (priority 2005, published 2008).
# Tested on: MMP-1 mRNA
# Assay: MMP-1 mRNA in synovial fibroblasts (real time PCR)
# Assay type: cell-based, human
# Method: Furthermore, it is determined whether this is accompanied by a modulation in the accumulation of the mRNA encoding catabolic enzyme matrix metalloproteinase-1 (MMP-1), responsible for degradation of human cartilage and consequently joint destruction in man. Adherent synovial fluid cells taken from a patient with RA are used after 5 passages in an in vitro assay for cartilage destruction. The cells incubated in flasks coated with 0.1% (0.1 g/100 ml) human cartilage powder are fixed using Matrigel® (BD Biosciences, Becton, Dickinson & Co., Boston, Mass., USA).
# This is conducted in the presence or absence of IL-1β (100 pg/ml).
structure (smiles),measurement,setting,value
"CC1=C(/C=C/C(C)=C\C=C\C(C)=C\C(=O)O)C(C)(C)CCC1 [9-cis RA, 9-cis retinoic acid, reference compound]","MMP-1 mRNA, fold increase of baseline value","10^−7 M, after 24 hours",2.60 relative units
same,"MMP-1 mRNA, fold increase of baseline value","10^−8 M, 0 hours",1 relative units
same,"MMP-1 mRNA, fold increase of baseline value","10^−8 M, 2 hours",0.98 relative units
same,"MMP-1 mRNA, fold increase of baseline value","10^−8 M, 6 hours",1.31 relative units
same,"MMP-1 mRNA, fold increase of baseline value","10^−8 M, 12 hours",3.39 relative units
same,"MMP-1 mRNA, fold increase of baseline value","10^−8 M, 24 hours",3.79 relative units
same,"MMP-1 mRNA, fold increase of baseline value","10^−8 M, 48 hours",1.47 relative units
same,"MMP-1 mRNA, fold increase of baseline value","10^−8 M, after 24 hours",3.39 relative units
same,"MMP-1 mRNA, fold increase of baseline value","10^−9 M, after 24 hours",1.54 relative units
